{"source": "paper PMC7187627", "about": "(Antimicrobial Agents and Chemotherapy, 2019)", "experiment": "Fecal (stool) pharmacokinetics, multiple-ascending-dose phase 1 study", "format": "in vivo, human", "conditions": "for Cstool,ss (concentration in stool) / fe,stool (fe,feces,ss, fraction of dose excreted unchanged in feces over 24 h): day 10, median (minimum, maximum); for fe,stool (fe,feces,ss, fraction of dose excreted unchanged in feces over 24 h): % in Table S4", "experimental": "PK method development, validation, and sample testing for plasma, feces, and urine were performed at KCAS, LLC (Shawnee, KS). Plasma, urine, and fecal concentrations of CRS3123 were determined by means of validated, sensitive, and specific high-performance liquid chromatography/tandem mass spectrometric (HPLC-MS/MS) assays. The lower limits of quantification of CRS3123 in plasma, feces, and urine were 10.0 ng/ml, 60.0 ng/g, and 100.0 ng/ml, respectively. The validated urine PK assay measured total free CSR3123. Since the majority of urinary CRS3123 was excreted as glucuronide conjugates ([32]), an enzymatic cleavage step using glucuronidase was added to the process to convert the glucuronide conjugates to free CRS3123 for the urine analysis.\nA selective, accurate, and reproducible analytical method using LC-MS/MS for the quantitation of CRS3123 in human fecal homogenate was linear over a range of 10.0 to 2000 ng/ml (fecal homogenate) or 60.0 to 12,000 ng/g (fecal material). Since 11 fecal samples collected on day 10 exceeded the upper limit, this method was amended by validating it for an extended range of 50.0 to 3,000 μg/ml (fecal homogenate) or […] (fecal material).\n(iii) Fecal PK. Twenty-four-hour fecal collection was initiated for all subjects following dose 1 and dose 19 of study drug for measurement of CRS3123 concentrations in feces. A listing of individual PK fecal sample collection start and stop dates/times, fecal weight excreted for each planned collection, CRS3123 concentration in each fecal collection, and amount of CRS3123 excreted in each fecal collection was provided for each fecal collection for each treatment. The bioanalytical method was amended to allow for reanalysis of samples originally outside the linear range.\nThe following parameters were calculated from the fecal data: amount of unchanged drug excreted in feces (in nanograms) following doses 1 and 2 (Ae,feces) or doses 19 and 20 (Ae,feces,ss) calculated as fecal concentration × fecal weight (in the case of multiple fecal samples, Ae,feces and Ae,feces,ss were determined as the sum of the amount calculated in each fecal sample collected during the 24-h collection period), and fraction of dose excreted unchanged in feces (fe,feces,ss) over a 24-h interval after multiple dosing (expressed as a percentage), calculated as Ae,feces,ss divided by dose 19 plus dose 20.\nDue to the 12-h dosing interval utilized in this study, fe,feces,ss was calculated only after multiple dosing on day 10, when CRS3123 would be expected to be at or near steady state. […] A subject listing of individual fecal PK parameters for each treatment was provided for day 1 and for day 10.", "note": "Values joined by “and” are separate entries in the source; they are usually repeats but may differ in a detail not shown here. Equal entries are not always repeated."}
{"compound": "O=c1cc(NCCCN[C@@H]2CCOc3c(Br)cc(Br)cc32)[nH]c2ccsc12", "note": "[CRS3123]", "values": [{"measurement": "Cstool,ss (concentration in stool)", "setting": "200 mg Q12h oral", "result": "2,115 μg/g and 2,115 (966, 4,430) μg/g"}, {"measurement": "fe,stool (fe,feces,ss, fraction of dose excreted unchanged in feces over 24 h)", "setting": "200 mg Q12h oral", "result": "24.9% and 24.9 (1.9, 68.8) %"}, {"measurement": "Cstool,ss (concentration in stool)", "setting": "400 mg Q12h oral", "result": "5,390 μg/g and 5,390 (2,920, 8,700) μg/g"}, {"measurement": "fe,stool (fe,feces,ss, fraction of dose excreted unchanged in feces over 24 h)", "setting": "400 mg Q12h oral", "result": 52.0, "unit": "%"}, {"measurement": "Cstool,ss (concentration in stool)", "setting": "600 mg Q12h oral", "result": "8,280 μg/g and 8,280 (2,200, 14,000) μg/g"}, {"measurement": "fe,stool (fe,feces,ss, fraction of dose excreted unchanged in feces over 24 h)", "setting": "600 mg Q12h oral", "result": "43.1% and 43.1 (11.0, 125.8) %"}, {"measurement": "concentrations in feces", "setting": "all three doses tested", "result": "above 1,000 μg/g"}, {"measurement": "fecal concentrations relative to MIC90", "setting": "human, in vivo", "result": "substantially above the MIC90 value"}]}
